Values of other authors in US20030216337A1, “Composition and imaging methods for pharmacokinetic and pharmacodynamic evaluation of therapeutic delivery system” (priority 2002, published 2003).

half-life (in humans, unincorporated IUdR / resulting compound): less than minutes
SMILES: O=c1[nH]c(=O)n([C@H]2C[C@H](O)[C@@H](CO)O2)cc1I [IUdR, 5-Iodo-2′-deoxyuridine]
catabolism of unincorporated IUdR (unincorporated into DNA): rapidly catabolized to iodouracil and/or dehalogenated
